The values below come from publication PMC8415315, “Maternal Serotonin Reuptake Inhibitor Antidepressants Have Acute Effects on Fetal Heart Rate Variability in Late Gestation” (Frontiers in Psychiatry, 2021).

Like-named read-outs stand apart in the source and are kept apart here.

Details of series [1]: method as in PMID 26765210. To be noted: rodents; 2-h after maternal drug administration; ref [83]; cited from earlier work.
Series [2] can be described thus: Non-compartmental pharmacokinetic analysis of maternal SRI plasma levels. To be noted: for AUC(0-t) / Cmax: female, human, 36-weeks' gestation, daily oral dose; for AUC(0-t) / Cmax / Tpeak: mean ± SE; for AUC(0-t): area under the curve from T0 (baseline) to last measured plasma concentration (T4), SRI-treated women; for Cmax: maximum (peak) maternal plasma drug concentration; for Tpeak: time from baseline (T0) to reach Cmax, oral dose about 1.8 h after T0. It is filed as in vivo, human. The method, then:
Maternal SRI plasma levels were further characterized by performing a non-compartmental pharmacokinetic analysis, yielding estimates of maximum plasma drug concentration (Cmax), time-to-peak (Tpeak) and area under the curve (AUClast). Pharmacokinetic variables were calculated using the PKNCA R package ([73]).

A short description of series [3]: Maternal plasma drug concentrations by HPLC tandem mass spectrometry at 36-weeks' gestation. To be noted: for Δ T3-T0, change in dose-adjusted plasma concentration: mean ± SE, from baseline (T0) to post-dose 3 (T3); for Pharmacokinetic phase at the post-dose fetal assessment: reached Cmax. From the text: To investigate chronic and acute SRI effects on the fetus, SRI-treated women were asked to withhold their typical morning oral dose until ~10h00, resulting in the AM/baseline and PM fetal assessments corresponding to pre-dose and post-dose periods, respectively. To characterize concurrent SRI pharmacokinetics across the study protocol, plasma drug concentrations were quantified at baseline (pre-dose) and four time-points post-dose; details on the drug level assay and pharmacologic variables are described below. Timing for each component of this study considered the need for a sufficient antidepressant baseline (pharmacologic trough), half-life, and time-to-peak plasma levels, weighted against length of study in effort to minimize maternal discomfort/inconvenience and potential effects of diurnal variations in the fetal variables obtained.
Changes in maternal plasma drug concentration between fetal assessments were determined by analyzing blood samples from SRI-treated mothers pre-dose (T0, baseline levels; ~08h00) and at four time-points post-dose: T1 (~10h30), T2 (~12h30), T3 (~13h30), and T4 (~14h30). Serum was separated by centrifugation at 3,000 × g for 10 min, transferred to polypropylene tubes and stored at −70°C until analysis. High performance liquid chromatography tandem mass spectrometry, performed offsite (CANTEST Ltd.; Burnaby, Canada), was used to determine levels of fluoxetine, norfluoxetine, paroxetine, sertraline, citalopram, escitalopram and venlafaxine.
Plasma drug concentrations were adjusted for maternal oral dose (ng/ml·mg). To quantify the relative change in maternal SRI level between the pre- and post-dose fetal assessments, the difference in dose-adjusted plasma drug concentration between T0 and T3 was determined. Plasma concentrations for metabolites were not reported as they reflect parent drugs.

For series [4] the following is noted: known value the observation is said to be consistent with; no reference given; cited from earlier work.
For another series, the system named is fetal HR. The conditions noted are these: acute exposure; ref [49]; cited from earlier work.

As to `CN(C)CCCC1(c2ccc(F)cc2)OCc2cc(C#N)ccc21` (stereo not shown) [Citalopram], the “Fetal citalopram exposure relative to the mother” value in series [1] is “exceed that of the mother”. In series [2], the AUC(0-t) amounted to 906 ± 271 ng·h/mL, the peak level (Cmax) was 274 ± 92 ng/mL and the Tpeak was 4.9 ± 0.14 h. Further, in series [3], the “Δ T3-T0, change in dose-adjusted plasma concentration” value (“Δ T3-T0, change” for short) is given as 3.2 ± 1.0 ng/ml·mg and the “Pharmacokinetic phase at the post-dose fetal assessment” value is “early elimination phase”.
With `CNCCC(Oc1ccc(C(F)(F)F)cc1)c1ccccc1` (stereo not shown) [Fluoxetine], in series [4], the Tpeak was 6 to 8 h. For the same molecule, in series [2], the “AUClast, total observed maternal drug exposure during study protocol (rank among antidepressants)” value is recorded as “highest”; the AUC(0-t) amounted to 3220 ± 1920 ng·h/mL; the highest level (Cmax) was 613 ± 342 ng/mL; the Tpeak was found to be 5.8 ± 1.0 h. In series [3], the “Pharmacokinetic phase by the last blood collection (T4)” value (from here on “Pharmacokinetic phase … (T4)”) is reported as “absorption phase” and the “Δ T3-T0, change” value is given as 4.3 ± 2.5 ng/ml·mg. Besides, the “Pharmacokinetic phase … (T4)” value in series [3] (listed as fluoxetine) is on record as “still in the absorption phase”.
As to `Fc1ccc([C@@H]2CCNC[C@H]2COc2ccc3c(c2)OCO3)cc1` [Paroxetine], in series [2], the “AUClast, total observed maternal drug exposure during study protocol (rank among antidepressants)” value is “lowest”; the AUC(0-t) came out at 125 ± 66 ng·h/mL; the Cmax came out at 24 ± 5.2 ng/mL; the Tpeak was determined as 4.6 ± 0.04 h. In addition, in series [3], the “Δ T3-T0, change” value came to 0.13 ± 0.21 ng/ml·mg and the “Pharmacokinetic phase at the post-dose fetal assessment” value was “early elimination phase”.
For `CN[C@H]1CC[C@@H](c2ccc(Cl)c(Cl)c2)c2ccccc21` [Sertraline], in series [2], the AUC(0-t) was found to be 728 ± 256 ng·h/mL, the Cmax was found to be 197 ± 105 ng/mL and the Tpeak is recorded as 5.3 ± 0.18 h. In series [3], the “Δ T3-T0, change” value is listed as 0.71 ± 0.53 ng/ml·mg and the “Pharmacokinetic phase at the post-dose fetal assessment” value is given as “early elimination phase”.
Turning to `COc1ccc(C(CN(C)C)C2(O)CCCCC2)cc1` (stereo not shown) [Venlafaxine], in series [2], the AUC(0-t) came out at 621 ± 314 ng·h/mL, the peak level (Cmax) was 163 ± 74 ng/mL and the Tpeak is on record as 5.7 ± 0.30 h. Besides, in series [3], the “Pharmacokinetic phase … (T4)” value is recorded as “still in the absorption phase” and the “Δ T3-T0, change” value is reported as 0.43 ± 0.13 ng/ml·mg.
As to `CN1CCC[C@H]1c1cccnc1` [nicotine], in the series on fetal HR, the “Effect on fetal HR variability” value is reported as “decreased”.

What is called AUC(0-t) is exposure summed from dosing to a finite time, without extrapolation to infinity. As a reminder, the Cmax is the highest concentration seen after dosing.
